Experimental data from patent publication US5998366A, “Method for ameliorating glutamic acid decarboxylase associated autoimmune disorders” (The Regents of the University of California, priority 1997, dated 1999).

Tested on: spleen cells of NOD mice
Experiment: Proliferative recall response of spleen cells to β-cell antigens, by age
Type: cell-based
Conditions: female NOD mice, 10 μg/ml antigen or 7 μM peptide, 72 h culture (FIG. 8)
Protocol: NOD (Taconic farms) and BALB/c mice (Jackson Laboratories) were kept under specific pathogen free conditions. The mice were sacrificed at the ages indicated and the spleen cells were tested directly ex vivo for their proliferative recall response to antigen. Single cell suspensions of spleen cells were plated at 1×10^6 cells per well in 96 well microtiter plates in 200 μl serum free HL-1 medium (Ventrex) that was supplemented with 2 mM glutamine with or without 10 μg/ml antigen (or 7 μM peptide) in triplicate cultures. During the last 16 h of the 72 h culture period, 1 μCi[^3 H]-thymidine was added per well. Incorporation of label was measured by liquid scintillation counting.
Both human GAD65 (Bu, et al., Proc. Natl. Acad. Sci., 89:2115-2119, 1992) and E. coli β-gal (control) were purified from recombinant bacteria on the basis of a hexahistidine tag which allows their rapid affinity purification by metal affinity chromatography (Hochuli, et al., Bio/Technology, 6:1321-1325, 1988). Bovine CPH was the generous gift of L. Fricker (Albert Einstein Col. Med.) and human insulin was purchased from Eli Lilly.

Row | Substance | age at which the proliferative T-cell response to the antigen appeared
1 | insulin: human insulin purchased from Eli Lilly [reference compound] | 12 weeks
2 | CPH: bovine carboxypeptidase H, gift of L. Fricker [reference compound] | ≤ 8 weeks
